Results reported in patent US20260041620A1, “NOVEL AMINO ACID BASED SALTS, COMPOSITIONS AND METHODS FOR TREATING SKIN AND IMPROVING SKIN REJUVENATION AND LONGEVITY” (Sytheon Ltd, priority 2023, published 2026).
pIC50: −log10 of the molar value. Marks after values point to notes of the source that are not given here.

Experiments:
Telomerase = Telomerase Activity Quantification qPCR Assay in human dermal fibroblasts; assay type: cell-based; details: three days
Procedure: Normal neonatal human dermal fibroblasts (HDF cat, #2310; ScienCell, Oceanside, CA) were grown to confluence in the 6 well plate format and incubated with the test substances identified in Table 3 for three days. Following incubation, the cells were lysed and telomerase activity was determined with Telomerase Activity Quantification qPCR Assay Kit from ScienCell (cat. #8928). Forget-Me-Not™ EvaGreen® qPCR Master Mix (Low ROX) (Biotium, Fremont, CA) was used for real-time quantitative PCR on C1000 Touch System with CFX384™ optical module Detection. For quantifying the level of activity, the Comparative Cq method was used, following the equation: […]
where TPS is telomere primer set, which recognizes and amplifies newly synthesized telomere sequences and Cq(TPS) is the Quantification Cycle Value obtained from the qPCR software. The relative telomerase activity difference between the experimental condition and control is expressed as 2^−ΔCq Telomerase activity was considered different if the level of expression was reasonably high (Cq≤33 cycles to detect), the difference vs. control was >2 fold and the p value, assessed with two-tailed Student test, was <0.05.

NFκB = assay: NF-κB luminance reporter assay, TNFα activated; assay type: cell-based, Murine
Source text: NFκB expression was quantified from the luminance signals released from cells treated with the test products and the control (untreated).

HDAC1 = HDAC1 (Homo sapiens, UniProt Q13547); details: reported, abcam; cited from earlier work
HDAC10 = biological target: T1, HDAC10 (Homo sapiens, UniProt Q969S8); details: reported, abcam; cited from earlier work
T1 sequence (Q969S8 1-669): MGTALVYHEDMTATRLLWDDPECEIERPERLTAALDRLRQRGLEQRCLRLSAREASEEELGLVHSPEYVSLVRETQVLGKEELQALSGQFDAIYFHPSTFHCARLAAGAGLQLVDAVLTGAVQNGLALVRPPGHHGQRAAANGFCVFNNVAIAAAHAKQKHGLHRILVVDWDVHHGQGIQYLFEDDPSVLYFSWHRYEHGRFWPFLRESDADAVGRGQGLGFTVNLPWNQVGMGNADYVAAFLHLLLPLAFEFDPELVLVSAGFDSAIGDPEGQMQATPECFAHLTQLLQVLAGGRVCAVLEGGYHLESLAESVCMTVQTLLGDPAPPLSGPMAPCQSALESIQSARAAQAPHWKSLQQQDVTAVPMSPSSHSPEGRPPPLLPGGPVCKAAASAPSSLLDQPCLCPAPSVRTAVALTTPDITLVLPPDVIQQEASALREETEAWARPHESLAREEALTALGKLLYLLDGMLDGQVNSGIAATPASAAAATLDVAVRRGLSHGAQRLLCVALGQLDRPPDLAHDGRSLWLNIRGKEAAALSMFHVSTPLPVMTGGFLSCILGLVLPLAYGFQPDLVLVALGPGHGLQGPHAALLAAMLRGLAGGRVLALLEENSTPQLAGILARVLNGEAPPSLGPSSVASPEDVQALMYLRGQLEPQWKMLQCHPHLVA

COX-2 = biological target: T2, COX-2 (Homo sapiens, UniProt P35354); assay: biochemical
T2 sequence (P35354 18-604): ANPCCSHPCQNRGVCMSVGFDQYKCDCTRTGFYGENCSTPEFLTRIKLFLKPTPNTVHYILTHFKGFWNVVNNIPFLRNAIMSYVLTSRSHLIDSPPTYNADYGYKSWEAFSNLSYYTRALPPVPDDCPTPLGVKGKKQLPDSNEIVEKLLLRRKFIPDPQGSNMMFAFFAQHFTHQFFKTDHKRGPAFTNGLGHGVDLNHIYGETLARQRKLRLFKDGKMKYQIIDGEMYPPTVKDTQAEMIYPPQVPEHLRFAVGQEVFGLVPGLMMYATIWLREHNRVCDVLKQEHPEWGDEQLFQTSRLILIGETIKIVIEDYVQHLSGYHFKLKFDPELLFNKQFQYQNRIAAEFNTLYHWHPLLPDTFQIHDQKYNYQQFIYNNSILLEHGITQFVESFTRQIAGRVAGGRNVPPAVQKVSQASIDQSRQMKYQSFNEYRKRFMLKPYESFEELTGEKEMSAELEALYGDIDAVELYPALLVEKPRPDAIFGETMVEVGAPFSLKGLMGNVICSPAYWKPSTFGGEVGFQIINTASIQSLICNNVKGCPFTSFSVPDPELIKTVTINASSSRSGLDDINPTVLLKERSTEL
Procedure: A 0.1 gram sample of each test material was dissolved in 1 mL propanediol make a stock solution, each of which was subject to 1 to 2 serial dilutions using buffer for use in determining the IC50 Testing and analysis was performed in accordance with the protocol of the COX-2 Kt (Cayman Catalog #701080) (Cayman catalog #62160).

[1] = test system: normal human adipose-derived mesenchymal stem cells (MSC); assay: Reprograming of aged mesenchymal stem cells, gene expression by qPCR; assay type: cell-based; details: 10 ug/ml, 72 hours, starved MSC
Source text: MSCs are a multipotent type of stem cell that, directly or indirectly, have a significant impact on a number of physiological processes, including the proliferation and differentiation of epidermal cells and regeneration of the epidermal layer; however, as they age they show lower stemness and regenerative potential. MSCs are shown to enhance wound healing, to restore the barrier function of the skin, and to address skin aging, particularly aging due to sun exposure as well as natural senescence, including reducing the manifestation and/or degree of wrinkles. An evaluation was conducted to ascertain the effect, if any, of zinc di-(di-n-butyryl lysinate) (“ZDBL”) on MSCs. Specifically, normal human adipose-derived mesenchymal stem cells (MSC) (ATCC, Manassas, VA—PCS-500-011) were seeded in mesenchymal stem cell basal medium (ATCC, Manassas, VA—PCS500-030) supplemented with the MSC growth kit starvation media (ATCC, Manassas, VA—PCS500-040-811S) and cultured at 37° C. in a humidified 5% CO2 atmosphere using an VWR tissue culture incubator, Approximately 24 hours after a portion of the cells was placed in the starvation medium to generate stress, they were exposed to the ZDBL (10 ug/ml) and incubated for 72 hours: the remaining portion was not exposed to the ZDBL. RNA was then extracted for gene expression quantification by qPCR.

HDAC1, sequence (Q13547 whole entry, species assumed): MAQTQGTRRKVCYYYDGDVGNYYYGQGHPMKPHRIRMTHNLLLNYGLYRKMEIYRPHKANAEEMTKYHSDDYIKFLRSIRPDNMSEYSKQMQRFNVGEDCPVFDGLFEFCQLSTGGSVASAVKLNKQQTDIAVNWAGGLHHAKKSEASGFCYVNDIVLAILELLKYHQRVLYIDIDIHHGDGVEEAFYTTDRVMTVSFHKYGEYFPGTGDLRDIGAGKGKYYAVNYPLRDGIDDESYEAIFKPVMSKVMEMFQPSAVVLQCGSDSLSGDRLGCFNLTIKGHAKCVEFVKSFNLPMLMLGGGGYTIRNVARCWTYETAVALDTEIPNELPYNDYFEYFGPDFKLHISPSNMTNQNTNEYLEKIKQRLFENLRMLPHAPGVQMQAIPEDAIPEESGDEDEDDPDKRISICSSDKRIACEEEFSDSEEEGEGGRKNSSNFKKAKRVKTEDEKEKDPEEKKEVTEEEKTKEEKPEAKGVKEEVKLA

Compound: CCCC(=O)[O-].[Na+] [Sodium butyrate, reference compound]
- Average Cq(TPS) (Telomerase; 50 μg/ml): 34.3
- Telomerase Activity (FC vs. water) (Telomerase; 50 μg/ml): 0.7 FC
- ΔCq sample-water (Telomerase; 50 μg/ml): −0.5
- Average Cq(TPS) (Telomerase; 100 μg/ml): 33.7
- Telomerase Activity (FC vs. water) (Telomerase; 100 μg/ml): 1.1 FC
- ΔCq sample-water (Telomerase; 100 μg/ml): 0.1
- IC50 (NFκB; Mus musculus, C2C12 reporter cells, TNFα as activator, read-out: IC50 in inhibiting NFκB): 7700 µg/mL
- pIC50 (HDAC1): 3.52
- inhibition of HDAC10 (HDAC10): no inhibition
- pIC50 (COX-2): 2.57

Compound: CCCC(=O)NCCCC[C@H](NC(=O)CCC)C(=O)[O-].CCCC(=O)NCCCC[C@H](NC(=O)CCC)C(=O)[O-].[Zn+2] [Zn di-(di-n-butyryl lysinate), Zinc di-(di-n-butyryl lysinate)]
- BMP7 gene expression, Fold Change versus control [1]: 1.8* fold
- DACT1 gene expression, Fold Change versus control [1]: 2.2** fold
- DLK1 gene expression, Fold Change versus control [1]: 2.4** fold
- DPP4 gene expression, Fold Change versus control [1]: −1.8** fold
- OCT4 gene expression, Fold Change versus control [1]: 1.7** fold
- SOX2 gene expression, Fold Change versus control [1]: 2.4* fold
- SQSTM1/p62 gene expression, Fold Change versus control [1]: 1.7* fold
- TP63 gene expression, Fold Change versus control [1]: 3.0** fold
- WNT2 gene expression, Fold Change versus control [1]: 1.9** fold
- Average Cq(TPS) (Telomerase; 10 μg/ml): 30.7
- Telomerase Activity (FC vs. water) (Telomerase; 10 μg/ml): 8.9 FC
- ΔCq sample-water (Telomerase; 10 μg/ml): 3.2
- Average Cq(TPS) (Telomerase; 50 μg/ml): 30.0
- Telomerase Activity (FC vs. water) (Telomerase; 50 μg/ml): 14.6 FC
- ΔCq sample-water (Telomerase; 50 μg/ml): 3.9
- IC50 in inhibiting NFκB (NFκB; C2C12 reporter cells, TNFα as activator): 70.4 µg/mL
- fold more effective than Na butyrate in inhibiting NFκB (NFκB; ratio of IC50 values): about 110 fold
